Measured values taken from patent US10329304B2, “Compounds and methods for inhibition of hedgehog signaling and phosphodiesterase” (Vanderbilt University, priority 2014, dated 2019).
Like-named read-outs stand apart in the source and are kept apart here.

Key:
[1] = system: Hedgehog signaling (Gli-Luc reporter); assay: Hh Gli-Luciferase reporter assay in Shh-Light2 cells; format: cell-based, mouse; conditions: for EC50: Mus musculus, Shh Light2
Protocol: For Hh signaling assays, Shh-Light2 cells stably transfected with Gli-Luciferase reporter construct were used along with Shh-conditioned media, as previously described^7. Alternatively, 3 μM purmorphamine or 20 nM Smoothened agonist (SAG) (Santa Cruz Biotechnology, Santa Cruz, Calif.) was used to induce Hh signaling. Reporter cells were seeded in 96-well plates and incubated overnight with the various concentrations of eggmanone and Shh-conditioned media. To assess the effects of overexpression of Gli-2, PDE4D3 and DN-PDE4D3 on Hh signaling, mammalian expression vectors containing these constructs were transfected into Shh-Light2 cells in 96-well plates using Fugene6 (Roche), according to manufacturer's instructions. The transfected or Shh-stimulated cells were incubated overnight with the various concentrations of compound. The cells were then lysed, and cell extracts were subjected to Steady-Glo luciferase assay (Promega) according to manufacturer's instructions. The results were normalized to cell titer, as determined using Cell Titer-Glo luminescence assay (Promega).

PDE4D = PDE4D (Homo sapiens, UniProt Q08499); assay: PDE4 inhibition assay (PDE4D IC50); format: biochemical; conditions: Table 8; read-out: PDE4 Inhibition Assay (IC50)
Protocol: (§1) In vitro PDE profiling and dose-response assays were performed by BPS Biosciences (San Diego, Calif.). Kinetic Mechanism of inhibition studies were conducted by Millipore (St. Louis, Mo.). In brief, the PDE assay measures fluorescent polarization of FAM-AMP as FAM-cAMP is converted to FAM-AMP by PDE), the binding agent.
(§2) A series of dilutions of the test compound were prepared with 10% DMSO in assay buffer and 5 μl of the dilution was added to a 50 μl reaction so that the final concentration of DMSO is 1% in all of reactions. All of the PDE enzymatic reactions were conducted in duplicate at room temperature for 60 minutes in a 50 μl mixture containing PDE assay buffer (10 mM Tris-HCl, pH7.4, 10 mM MaCl2, 0.05% Tween 20), 100 nM FAM-cAMP, a PDE enzyme and a test compound.
(§3) After the enzymatic reaction, 100 μl of a binding solution (1:100 dilution of the binding agent, which contains the nano beads that recognize FAM-AMP, with the binding agent diluent) was added to each reaction and the reaction was performed at room temperature for 60 minutes. Fluorescence intensity was measured at an excitation of 485 nm and an emission of 528 nm using a Tecan Infinite M1000 microplate reader. Assays done by Millipore were conducted similarly with changes noted below:
Hedgehog signaling inhibition and PDE4 inhibition of various compounds disclosed herein was assayed as described herein above.

zebrafish embryos = assay: Zebrafish embryo phenotypic assay (ZF); format: in vivo; conditions: wild-type embryonic zebrafish, dosed 5 hpf
Protocol: All zebrafish experiments were approved by Vanderbilt University Institutional Animal Care and Use Committee. Wild-type zebrafish of AB strain were maintained using standard protocols. Chemical screen for small molecules was performed as previously described. Briefly, pairs of zebrafish were mated, and fertilized eggs were arrayed in 96-well microtiter plates (5 embryos/well) containing 250 μl E3 water. At ˜4-hpf, small molecule library from Vanderbilt High Throughput Screening Facility was added to each well to the final concentration of 5 μM. Embryos were incubated at 28.5° C. until 24 and 48-hpf, when they were examined for gross morphologic changes indicative of disruption in embryonic patterning. A total of ˜30,000 compounds were screened.
ZF refers to wild-type embryonic zebrafish phenotypic assay involving dosing n=˜10 embryos in E3 egg water with compound from either a stock of 1 mM or 10 mM in DMSO at 5 hours post-fertilization and observing at 24, 48, and 72 hours post-fertilization.

PDE4D3 = biological target: T1, PDE4D3 (Homo sapiens, UniProt Q08499); assay: In vitro PDE assay; format: biochemical
T1 construct: purchased BPS Biosciences (San Diego, Calif.); kinetic studies by Millipore (St. Louis, Mo.)
Protocol: as §1, §2
as §3, with “below: […]” for “below:”

[2] = system: Hedgehog signaling (TM3-Gli-Luc); assay: TM3-Gli-Luc luciferase reporter assay stimulated with 20 nM SAG; format: cell-based; conditions: Table 9A; read-out: TM3 G8 Luciferase EC 50
Protocol: TM3-Gli-Luc cells were maintained on sterile 0.1% gelatin (from porcine skin, Type A, prepared in MilliQ water, autoclaved, then sterile-filtered) in 1:1 Dulbecco's Modified Eagle Medium (DMEM)/F12 supplemented with 5% horse serum, 2.5% fetal bovine serum (FBS), and 15 mM HEPES, hereafter referred to as TM3 Culture Medium. For small molecule evaluation, TM3-Gli-Luc cells were assayed on 0.1% gelatin in DMEM/F12 supplemented with 2.5% FBS and 15 mM HEPES, hereafter referred to as TM3Luc Medium. Sufu^−/− cells were maintained in DMEM supplemented with 4.5 g/L D-glucose, L-glutamine, 25 mM HEPES, and 10% FBS, hereafter referred to as D10 FBS. For small molecule evaluation, Sufu^−/− cells were assayed in DMEM supplemented with 4.5 g/L D-glucose, L-glutamine, 25 mM HEPES, and 0.5% FBS, hereafter referred to as D0.5 FBS. All cells were cultured at 37° C. with a 5% CO2 atmosphere.
On the day of cell plating, 96-well plates were coated with 50 μL/well of sterile 0.1% gelatin for 5 minutes then aspirated and replaced with 50 μL/well of TM3 Culture Medium. TM3-Gli-Luc cells were seeded at a density of 5,000 cells/well in TM3 Culture Medium and incubated for 24 hours. A master mix of 20 nM SAG in TM3Luc Medium was prepared, and small molecule solutions were prepared by adding the desired amount of compound from 10 mM DMSO stock to TM3Luc Medium containing 20 nM SAG. Negative control was prepared by adding an equi-volume amount of DMSO as compared to small molecule treated conditions to TM3Luc Medium not containing SAG. Cell plating medium was aspirated and replaced with 100 μL/well of prepared small molecule-containing media, and plates were incubated for 48 hours before proceeding to luciferase activity and cell viability reading.
TM3Luc Medium from compound treated plates was aspirated and replaced with 82 μL/well of Glo Lysis Buffer (Promega, Madison, Wis., USA), and plates were shaken at 300 rpm and room temperature for 12 minutes. Lysate was split between two white 96-well plates, 45 μL/well and 25 μL/well for luciferase reading and cell viability respectively. For luciferase activity monitoring, 45 μL/well of Steady Glo (Promega, Madison, Wis., USA) was added to 45 μL/well of cell lysate, incubated at room temperature for 5 minutes, then luminescence was measured on a Turner Biosystems Modulus Microplate Reader (Sunnyvale, Calif., USA) with an integration time of 0.5 seconds. For cell viability measurement, 25 μL/well of Cell Titer Glo (Promega, Madison, Wis., USA) (prepared by 1:10 dilution with Glo Lysis Buffer) was added to 25 μL/well of cell lysate, incubated at room temperature for 5 minutes, then luminescence was measured as above.
Luciferase activity data (Steady Glo) was divided by corresponding cell viability data (Cell Titer Glo) to arrive at a live cell number-normalized luciferase activity reading. The average of negative control data (DMSO treated) was subtracted from all wells, and percent activity was calculated by dividing all wells by the positive control (SAG treated) average. […] At least two independent assays tested on separate days were averaged to provide EC50±standard error of the mean.

Gli1 mRNA = assay: Hh % Inh.: SAG-induced Gli1 expression in C3H10T½ cells (qPCR); format: cell-based; conditions: Mus musculus, C3H 10T1/2, SAG-induced (100 nM), 24 hours; for inhibition at 1 µM: 1 pM [sic], read-out: C3H10T1/2 qPCR, Gh1 mRNA % Inh., 1 pM; for inhibition at 10 µM: 10 pM [sic], read-out: C3H10T1/2 qPCR, Gh1 mRNA % Inh., 10 pM
Protocol: Compounds are dosed from 10 mM DMSO stock solutions, and mRNA is isolated after 24 hours of compound treatment. mRNA is reverse transcribed to produce cDNA which is quantified by quantitative polymerase chain reaction (qPCR) in triplicate and levels are normalized to GAPDH levels. Data is presented as percent inhibition compared to positive control (SAG).

[3] = Table 8, read-out: Hh Inhibition Assay (EC50)
[4] = Table 9B, read-out: Shh Light2 Luc EC50

Sequence of PDE4D (Q08499 1-673 isoform Q08499-2): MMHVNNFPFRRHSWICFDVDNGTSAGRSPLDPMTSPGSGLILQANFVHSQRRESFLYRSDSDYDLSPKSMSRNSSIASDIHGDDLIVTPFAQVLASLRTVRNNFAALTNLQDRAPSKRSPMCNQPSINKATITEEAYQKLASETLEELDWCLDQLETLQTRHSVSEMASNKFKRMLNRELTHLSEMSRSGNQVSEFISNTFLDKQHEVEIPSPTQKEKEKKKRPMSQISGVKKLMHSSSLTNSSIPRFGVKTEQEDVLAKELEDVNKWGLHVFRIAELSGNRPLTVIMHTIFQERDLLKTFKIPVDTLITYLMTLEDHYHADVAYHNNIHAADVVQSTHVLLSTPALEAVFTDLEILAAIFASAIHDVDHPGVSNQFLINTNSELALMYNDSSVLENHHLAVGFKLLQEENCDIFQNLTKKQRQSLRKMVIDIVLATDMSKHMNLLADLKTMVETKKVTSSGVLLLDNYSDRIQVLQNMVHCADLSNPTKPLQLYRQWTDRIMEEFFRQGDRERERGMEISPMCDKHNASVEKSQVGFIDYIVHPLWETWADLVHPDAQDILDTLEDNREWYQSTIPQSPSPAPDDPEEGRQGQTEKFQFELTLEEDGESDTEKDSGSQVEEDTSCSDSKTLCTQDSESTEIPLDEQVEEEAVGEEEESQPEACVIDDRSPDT
T1 sequence (Q08499 1-673 isoform Q08499-2): as above

EC50 [1, 3]	IC50 (PDE4D)	EC50 [1, 4]	Structure (SMILES)	also measured
5 to 20 µM	3.9 µM	–	C=C(C)Cn1c(SCC(=O)N2CCOCC2)nc2sc3c(c2c1=O)CCCC3 [Formula (13)]	–
–	> 100 µM	–	C=CCn1c(SCC(=O)c2cccs2)nc2sc3c(c2c1=O)CCCC3 [Formula (2)]	Hh Inhibition Assay (EC50, μM) ([1]; Table 8): Inactive
–	–	–	O=C(CSc1nc2sc3c(c2c(=O)n1C1CC1)CCN(C(=O)c1ccco1)C3)c1ccccc1 [KYK-1-75]	ZF Phenotype EC100 (zebrafish embryos): >50 µM; IC50 (PDE4D3; Table 9A): 6.4 µM; EC50 [2]: 3.59 µM
–	27 µM	–	C=CCn1c(SCC(=O)c2nccs2)nc2sc3c(c2c1=O)CCCC3 [Formula (10)]	Hh Inhibition Assay (EC50, μM) ([1]; Table 8): Inactive
10 µM	2.08 µM	–	C=CCn1c(SCC(=O)N2CCN(C)CC2)nc2sc3c(c2c1=O)CCCC3 [Formula (8)]	–
–	> 100 µM	–	C=C(C)Cn1c(SCC(=O)c2ccc(-c3ccccc3)cc2)nc2sc3c(c2c1=O)CCCC3 [Formula (19)]	Hh Inhibition Assay (EC50, μM) ([1]; Table 8): Inactive
–	–	> 10 µM	CCn1c(SCC(=O)c2ccccc2)nc2sc3c(c2c1=O)CCC3 [HI598]	–
–	–	> 10 µM	C=CCn1c(SCC(=O)O)nc2sc3c(c2c1=O)CCCC3 [HI918]	–
–	–	> 20 µM	CCn1c(SCC(=O)c2ccc(Cl)cc2)nc2sc3c(c2c1=O)CCC3 [HI113]	IC50 (PDE4D3; Table 9B): 4.1 µM
–	–	> 10 µM	C=C(C)Cn1c(SC)nc2sc3c(c2c1=O)CCCC3 [HI272]	–
–	–	–	C=C(C)Cn1c(SCC(=O)c2cccs2)nc2sc3ccccc3c2c1=O [JEH-4-006]	inhibition at 1 µM (Gli1 mRNA): 14.3%; inhibition at 10 µM (Gli1 mRNA): 79.3%; EC50 (Gli1 mRNA; read-out: C3H10T1/2 qPCR, Gh1 mRNA EC50): 4.3 µM; IC50 (PDE4D3; Table 9A): > 100 µM; EC50 [2]: > 50 µM
–	> 100 µM	–	C=CCn1c(SCC(=O)N2CCOCC2)nc2sc3c(c2c1=O)CCCC3 [Formula (14)]	Hh Inhibition Assay (EC50, μM) ([1]; Table 8): Inactive
–	46 µM	–	C=C(C)Cn1c(SCC(=O)N2Cc3ccccc3C2)nc2sc3c(c2c1=O)CCCC3 [Formula (17)]	Hh Inhibition Assay (EC50, μM) ([1]; Table 8): Inactive
–	–	> 10 µM	CCn1c(SCC(=O)c2ccccc2)nc2sc(C)c(C)c2c1=O [HI864]	–
5 µM	7.6 µM	–	C=CCn1c(SCC(=O)N2CCCC[C@H]2C)nc2sc3c(c2c1=O)CCCC3 [Formula (6)]	–
20 µM	8.5 µM	–	C=C(C)Cn1c(SCC(=O)N2CCN(C)CC2)nc2sc3c(c2c1=O)CCCC3 [Formula (7)]	–
–	–	> 10 µM	C=CCn1c(SCC(=O)c2ccc(F)cc2)nc2sc3c(c2c1=O)CCCC3 [HI682]	–
20 µM	25 µM	–	C=CCn1c(SCC(=O)c2ccccn2)nc2sc3c(c2c1=O)CCCC3 [Formula (16)]	–
–	–	> 10 µM	C=CCn1c(SCC(=O)c2ccc(C)cc2)nc2sc3c(c2c1=O)CCCC3 [HI612]	–
–	–	–	O=C(CSc1nc2sc3c(c2c(=O)n1CC1CC1)CCCC3)c1cccs1 [JEH-3-039-1]	inhibition at 1 µM (Gli1 mRNA): -3.3%; inhibition at 10 µM (Gli1 mRNA): 81.6%; IC50 (PDE4D3; Table 9A): 1 µM; EC50 [2]: 2.96 µM
10 µM	16 µM	–	C=C(C)Cn1c(SCC(=O)c2ccncc2)nc2sc3c(c2c1=O)CCCC3 [Formula (11)]	–
–	–	> 10 µM	CCn1c(SCC(=O)c2ccc(Br)cc2)nc2sc3c(c2c1=O)CCC3 [HI2863]	–
–	> 100 µM	–	C=CCn1c(SCC(=O)N2Cc3ccccc3C2)nc2sc3c(c2c1=O)CCCC3 [Formula (18)]	Hh Inhibition Assay (EC50, μM) ([1]; Table 8): Inactive
15 µM	23 µM	–	C=C(C)Cn1c(SCC(=O)c2ccccn2)nc2sc3c(c2c1=O)CCCC3 [Formula (15)]	–
–	–	–	C=CCn1c(SCC(=O)c2ccc(-c3ccccc3)cc2)nc2sc3c(c2c1=O)CCCC3 [Formula (20)]	Hh Inhibition Assay (EC50, μM) ([1]; Table 8): Inactive
–	–	> 10 µM	C=CCn1c(SCC(=O)c2ccc(OC)cc2)nc2sc3c(c2c1=O)CCCC3 [HI798]	IC50 (PDE4D3; Table 9B): > 100 µM
15 µM	8.2 µM	–	C=CCn1c(SCC(=O)c2ccncc2)nc2sc3c(c2c1=O)CCCC3 [Formula (12)]	–

Structure (SMILES)	EC50 [1, 3]	IC50 (PDE4D)	EC50 [1, 4]	also measured
C=C(C)Cn1c(SCC(=O)c2ccccc2)nc2sc3c(c2c1=O)CCCC3 [Formula (3)]	3 µM	1.27 µM	–	–
C=C(C)Cn1c(SCC(=O)c2cccs2)nc2sc3c(c2c1=O)CCCC3 [Formula (1), 3-(2-methylallyl)-2-((2-oxo-2-(thiophen-2-yl)ethyl)thio)-5,6,7,8-tetrahydrobenzo[4,5]thieno[2,3-d]pyrimidine-4(3H)-one]	1.5 µM	0.893 µM	–	–
